Experimental data from US10526316B2, “Quinoxaline and pyridopyrazine derivatives as PI3Kβ inhibitors” (Janssen Pharmaceutica NV, priority 2015, dated 2020).
Read-outs that look alike come from different tables or passages of the source.

Legend:
PI3Kβ = molecular target: T1, PI3Kβ (Homo sapiens, UniProt P42338); test: Enzyme binding assay (KINOMEscan, DiscoveRx); conditions: PIK3Cβ_h, read-out: Kd PIK3Cβ_h
T1 construct: purchased DiscoveRx Corporation, San Diego (contract service, KINOMEscan)
In short: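 Using the KINOMEscan format, the enzyme binding affinity of each compound was determined. Each value is the inhibitor binding constant, Kd (nM).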

PI3Kδ = molecular target: T2, PI3Kδ (Homo sapiens, UniProt O00329); test: Enzyme binding assay (KINOMEscan, DiscoveRx); conditions: PIK3Cδ_h
T2 construct: purchased DiscoveRx Corporation, San Diego (contract service, KINOMEscan)
T2 sequence (O00329 1-1044): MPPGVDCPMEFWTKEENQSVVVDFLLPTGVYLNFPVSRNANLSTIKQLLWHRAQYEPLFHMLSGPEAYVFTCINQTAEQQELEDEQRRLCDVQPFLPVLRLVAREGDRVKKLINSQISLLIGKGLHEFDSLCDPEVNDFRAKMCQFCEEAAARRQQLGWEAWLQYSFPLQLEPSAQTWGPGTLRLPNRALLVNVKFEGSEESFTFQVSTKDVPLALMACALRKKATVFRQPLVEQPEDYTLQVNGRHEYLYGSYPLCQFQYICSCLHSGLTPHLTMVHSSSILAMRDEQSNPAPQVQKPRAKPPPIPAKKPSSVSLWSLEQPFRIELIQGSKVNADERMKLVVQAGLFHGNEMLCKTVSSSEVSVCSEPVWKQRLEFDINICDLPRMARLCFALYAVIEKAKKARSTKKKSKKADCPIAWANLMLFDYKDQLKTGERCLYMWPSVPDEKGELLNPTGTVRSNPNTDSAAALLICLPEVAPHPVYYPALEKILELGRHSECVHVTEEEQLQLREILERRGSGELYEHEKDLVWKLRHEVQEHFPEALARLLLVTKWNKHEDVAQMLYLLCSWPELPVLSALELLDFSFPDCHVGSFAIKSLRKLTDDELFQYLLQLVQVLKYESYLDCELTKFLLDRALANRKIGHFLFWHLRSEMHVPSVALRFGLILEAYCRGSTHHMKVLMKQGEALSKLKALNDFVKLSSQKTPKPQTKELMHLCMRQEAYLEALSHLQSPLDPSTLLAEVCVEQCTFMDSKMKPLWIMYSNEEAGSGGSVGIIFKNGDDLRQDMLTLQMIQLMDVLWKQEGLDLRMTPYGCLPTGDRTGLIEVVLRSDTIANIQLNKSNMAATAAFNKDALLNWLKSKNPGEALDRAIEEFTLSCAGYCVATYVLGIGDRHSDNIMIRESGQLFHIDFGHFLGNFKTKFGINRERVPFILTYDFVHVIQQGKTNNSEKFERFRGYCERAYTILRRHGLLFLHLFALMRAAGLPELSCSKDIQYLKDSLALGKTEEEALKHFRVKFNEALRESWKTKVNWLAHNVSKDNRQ
In short: (§1)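 Uses KINOMEscan technology to determine binding affinity toward the kinase enzymes.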

kinase enzymes [1] = molecular target: T3, kinase enzymes (Homo sapiens, UniProt P42336); test: Enzyme binding assay (KINOMEscan, DiscoveRx), further kinases of Table A; conditions: PIK3Cα_h
T3 construct: purchased DiscoveRx Corporation, San Diego (contract service, KINOMEscan)
T3 sequence (P42336 whole entry): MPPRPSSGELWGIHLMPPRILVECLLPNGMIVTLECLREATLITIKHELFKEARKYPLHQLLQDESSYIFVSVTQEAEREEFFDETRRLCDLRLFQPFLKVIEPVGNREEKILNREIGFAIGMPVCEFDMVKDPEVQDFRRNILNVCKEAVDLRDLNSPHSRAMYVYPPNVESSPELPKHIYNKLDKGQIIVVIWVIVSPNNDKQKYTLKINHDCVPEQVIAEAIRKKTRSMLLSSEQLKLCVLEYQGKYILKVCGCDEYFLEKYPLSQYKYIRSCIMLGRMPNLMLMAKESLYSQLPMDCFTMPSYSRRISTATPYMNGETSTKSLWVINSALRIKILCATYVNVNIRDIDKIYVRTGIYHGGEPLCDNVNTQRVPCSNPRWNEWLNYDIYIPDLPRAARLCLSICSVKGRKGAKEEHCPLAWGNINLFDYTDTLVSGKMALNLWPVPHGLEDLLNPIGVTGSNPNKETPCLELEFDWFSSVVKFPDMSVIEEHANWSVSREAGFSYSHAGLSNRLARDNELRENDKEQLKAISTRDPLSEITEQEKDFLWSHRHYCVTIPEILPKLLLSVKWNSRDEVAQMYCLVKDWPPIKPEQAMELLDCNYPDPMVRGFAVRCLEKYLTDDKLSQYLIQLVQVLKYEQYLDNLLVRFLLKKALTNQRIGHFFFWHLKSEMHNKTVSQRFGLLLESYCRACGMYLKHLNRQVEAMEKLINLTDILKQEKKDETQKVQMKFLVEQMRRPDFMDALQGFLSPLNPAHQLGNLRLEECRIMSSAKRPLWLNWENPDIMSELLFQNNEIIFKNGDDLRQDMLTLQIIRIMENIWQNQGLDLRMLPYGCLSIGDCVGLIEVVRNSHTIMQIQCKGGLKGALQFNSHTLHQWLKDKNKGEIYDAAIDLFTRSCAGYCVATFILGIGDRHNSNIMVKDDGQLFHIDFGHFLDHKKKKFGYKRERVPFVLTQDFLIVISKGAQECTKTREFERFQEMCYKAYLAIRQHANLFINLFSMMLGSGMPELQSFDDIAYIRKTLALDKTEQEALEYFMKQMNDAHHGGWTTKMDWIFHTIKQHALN
In short: as §1

kinase enzymes [2] = molecular target: T4, kinase enzymes (Homo sapiens, UniProt P42345); test: as above; conditions: MTOR_h
T4 construct: purchased DiscoveRx Corporation, San Diego (contract service, KINOMEscan)
In short: as §1

kinase enzymes [3] = molecular target: T5, kinase enzymes (Homo sapiens, UniProt P48736); test: as above; conditions: PIK3Cγ_h
T5 construct: purchased DiscoveRx Corporation, San Diego (contract service, KINOMEscan)
T5 sequence (P48736 whole entry): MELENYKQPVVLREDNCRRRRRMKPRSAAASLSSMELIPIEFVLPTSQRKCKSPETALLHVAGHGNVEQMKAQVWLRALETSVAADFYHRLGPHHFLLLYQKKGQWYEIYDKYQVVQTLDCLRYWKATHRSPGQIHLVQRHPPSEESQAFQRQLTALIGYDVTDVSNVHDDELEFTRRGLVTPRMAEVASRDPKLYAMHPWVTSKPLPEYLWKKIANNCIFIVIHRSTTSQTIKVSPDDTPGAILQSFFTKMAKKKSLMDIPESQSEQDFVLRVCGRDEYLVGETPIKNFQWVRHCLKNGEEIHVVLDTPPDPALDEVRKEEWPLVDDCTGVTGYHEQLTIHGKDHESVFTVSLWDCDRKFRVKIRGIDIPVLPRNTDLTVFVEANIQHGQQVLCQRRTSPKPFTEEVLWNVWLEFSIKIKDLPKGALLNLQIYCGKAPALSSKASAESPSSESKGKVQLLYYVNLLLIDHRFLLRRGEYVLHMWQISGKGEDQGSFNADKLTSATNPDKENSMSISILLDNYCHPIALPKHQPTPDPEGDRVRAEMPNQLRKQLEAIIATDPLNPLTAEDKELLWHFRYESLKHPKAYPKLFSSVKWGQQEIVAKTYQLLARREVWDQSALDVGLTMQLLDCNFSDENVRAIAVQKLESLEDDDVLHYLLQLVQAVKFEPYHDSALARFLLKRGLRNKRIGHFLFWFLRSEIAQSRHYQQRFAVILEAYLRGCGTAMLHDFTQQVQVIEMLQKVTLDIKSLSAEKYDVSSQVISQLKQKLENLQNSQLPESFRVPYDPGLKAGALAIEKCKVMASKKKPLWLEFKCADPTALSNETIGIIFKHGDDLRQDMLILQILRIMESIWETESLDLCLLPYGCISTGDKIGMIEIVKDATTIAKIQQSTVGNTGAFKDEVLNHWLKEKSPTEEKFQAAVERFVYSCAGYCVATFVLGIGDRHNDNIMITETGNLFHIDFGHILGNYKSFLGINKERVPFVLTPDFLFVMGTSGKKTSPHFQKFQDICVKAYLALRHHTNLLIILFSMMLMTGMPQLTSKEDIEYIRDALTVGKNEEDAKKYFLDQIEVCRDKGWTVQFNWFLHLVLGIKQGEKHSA
In short: as §1

[4] = system: Akt phosphorylated at Ser473 in PC-3 cells; test: Cellular assay: phosphorylation of Akt at Ser473 in PC-3 cells (MSD ELISA); assay type: cell-based; conditions: PC-3 cells, 60 min compound incubation, MSD ELISA, read-out: IC50 pAkt_S473
In short: (§2)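 Electrochemiluminescent sandwich ELISA read-out: phospho-specific capture (Ser473 or Thr308), Sulfo-tag anti-total Akt detection, signal proportional to phospho-Akt. Cells treated 60 min at 37° C with compound, DMSO 0.3%. IC50 fitted from five concentrations.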

[5] = system: Akt phosphorylated at Thr308 in PC-3 cells; test: Cellular assay: phosphorylation of Akt at Thr308 in PC-3 cells (MSD ELISA); assay type: cell-based; conditions: PC-3 cells, 60 min compound incubation, MSD ELISA, read-out: IC50 pAkt_Thr308
In short: as §2

T1 sequence (P42338 whole entry): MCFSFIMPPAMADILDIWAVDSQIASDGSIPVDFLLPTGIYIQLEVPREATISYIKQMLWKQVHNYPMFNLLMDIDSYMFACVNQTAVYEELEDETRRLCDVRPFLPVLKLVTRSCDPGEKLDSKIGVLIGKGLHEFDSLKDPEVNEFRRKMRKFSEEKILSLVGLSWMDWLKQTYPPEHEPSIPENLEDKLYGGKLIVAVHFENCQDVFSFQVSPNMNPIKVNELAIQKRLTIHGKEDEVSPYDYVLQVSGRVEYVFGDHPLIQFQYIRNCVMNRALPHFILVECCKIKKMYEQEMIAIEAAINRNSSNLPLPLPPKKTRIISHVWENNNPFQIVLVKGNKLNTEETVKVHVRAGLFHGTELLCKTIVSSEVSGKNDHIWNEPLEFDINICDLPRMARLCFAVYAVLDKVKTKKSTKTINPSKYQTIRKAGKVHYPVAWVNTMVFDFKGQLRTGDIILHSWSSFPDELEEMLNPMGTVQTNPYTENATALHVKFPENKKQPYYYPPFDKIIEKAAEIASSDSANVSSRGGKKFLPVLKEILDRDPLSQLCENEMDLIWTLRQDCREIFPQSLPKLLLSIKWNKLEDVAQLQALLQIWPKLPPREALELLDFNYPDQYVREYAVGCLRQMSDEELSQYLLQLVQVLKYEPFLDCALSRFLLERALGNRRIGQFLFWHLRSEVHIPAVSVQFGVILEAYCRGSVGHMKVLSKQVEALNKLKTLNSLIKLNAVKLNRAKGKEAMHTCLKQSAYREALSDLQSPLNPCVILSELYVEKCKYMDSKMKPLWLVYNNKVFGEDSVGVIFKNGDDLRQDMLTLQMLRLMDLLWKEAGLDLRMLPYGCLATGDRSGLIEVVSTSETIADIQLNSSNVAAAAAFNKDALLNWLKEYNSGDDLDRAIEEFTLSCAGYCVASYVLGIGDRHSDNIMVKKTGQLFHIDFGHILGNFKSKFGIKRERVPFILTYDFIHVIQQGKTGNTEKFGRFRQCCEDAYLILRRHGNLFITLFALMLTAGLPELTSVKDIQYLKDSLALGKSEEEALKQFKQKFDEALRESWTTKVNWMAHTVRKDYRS

| Compound | Kd (PI3Kβ) | Kd (PI3Kδ) | Kd (kinase enzymes [1]) | Kd (kinase enzymes [2]) | Kd (kinase enzymes [3]) | IC50 ([4]; Homo sapiens, PC-3, 1 h) | IC50 ([5]; Homo sapiens, PC-3, 1 h) | melting point | IC50 [4] | IC50 [5] |
| --- | --- | --- | --- | --- | --- | --- | --- | --- | --- | --- |
| CC(Nc1cc(F)cc(Cl)c1)c1cc(C(=O)N2CCOCC2)cc2ncc(N3CCOCC3)nc12 (centres unmarked) [Compound 146] | 2 nM | 933 nM | 1910 nM | > 30200 nM | 8130 nM | 83 nM | 38 nM | 80 °C |  |  |
| CCN(c1cccc(F)c1)C(C)c1cc(C(=O)N2CCOCC2)cc2ncc(N3CCOCC3)nc12 (centres unmarked) [Compound 20] | 17 nM | 1550 nM | 3630 nM | 21900 nM | 22400 nM | 363 nM | 372 nM | 80 °C |  |  |
| CN(C)C(=O)c1cc(NCc2ccc(F)cc2)c2nc(N3CCOCC3)cnc2c1 [Compound 400] | 24 nM | 1590 nM | 2340 nM | 26300 nM | 18600 nM | 457 nM | ~372 nM | 80 °C |  |  |
| O=C(NCCCO)c1cc(C2CCCN2c2cc(F)cc(F)c2)c2nc(N3CCOCC3)cnc2c1 (centres unmarked) [Compound 66] | 2 nM | 79 nM | 65 nM | 17000 nM | 676 nM | 13 nM | 6 nM | 80 °C |  |  |
| CC(Oc1cccc(F)c1)c1cc(C(=O)N(C)C)cc2ncc(N3CCOCC3)nc12 (centres unmarked) [Compound 68] | 3 nM | 589 nM | 3160 nM | 22400 nM | 15100 nM | 257 nM | 148 nM | 49 °C |  |  |
| Cc1ccc(NC(C)c2cc(C(=O)NCCO)cc3ncc(N4CCOCC4)nc23)cc1F (single isomer, unassigned) [Compound 295b] | 19500 nM | > 30200 nM | > 30200 nM | > 30200 nM | 4570 nM | > 513 nM | > 513 nM | 120 °C |  |  |
| CC(Nc1cccc(F)c1)c1cc(C(=O)N2CC[C@@H](O)C2)cc2ncc(N3CCOCC3)nc12 (single isomer, unassigned) [Compound 321a] | 1 nM | 174 nM | 832 nM | > 30200 nM | 4680 nM | 18 nM | 8 nM | 118 °C |  |  |
| CC(Oc1cc(F)cc(F)c1)c1cc(C(=O)NCCO)cc2ncc(N3CCOCC3)nc12 (single isomer, unassigned) [Compound 199] | 68 nM | 5490 nM | 4900 nM | 28800 nM | 11700 nM | > 513 nM | 309 nM | 140 °C |  |  |
| CC(Oc1cccc(F)c1)c1cc(C(=O)N2CCC[C@H]2CO)cc2ncc(N3CCOCC3)nc12 (single isomer, unassigned) [Compound 86] | 15 nM | 537 nM | 3470 nM | > 30200 nM | 21400 nM | 513 nM | 263 nM | 76 °C |  |  |
| CC(Nc1ccc(F)c(F)c1)c1cc(C(=O)NCCCO)cc2ncc(N3CCOCC3)nc12 (single isomer, unassigned) [Compound 280a] | 12 nM | 562 nM | 1700 nM | 20900 nM | 12000 nM |  |  | 80 °C | 87 nM | 45 nM |
| Fc1cc(F)cc(N2CCCC2c2cncc3ncc(N4CCOCC4)nc23)c1 (single isomer, unassigned) [Compound 25] | 37 nM | 4680 nM | 12300 nM | > 30200 nM | 12900 nM |  |  | 98 °C | > 513 nM | > 513 nM |
| COCCNC(=O)c1cc(C(C)Nc2cc(F)cc(F)c2)c2nc(N3CCOCC3)cnc2c1 (single isomer, unassigned) [Compound 203] | 5 nM | 912 nM | 1660 nM | 21400 nM | 6610 nM |  |  | 118 °C | 98 nM | 44 nM |
| CC(Oc1cccc(F)c1)c1cc(C(=O)NCCO)cc2ncc(N3CCOCC3)nc12 (single isomer, unassigned) [Compound 334a] | 19 nM | 1070 nM | 5370 nM | 26900 nM | 12900 nM | 339 nM |  | 136 °C |  | 219 nM |
| CNCCOCCN(C)C(=O)c1cc(C(C)Nc2cc(F)c(F)c(F)c2)c2nc(N3CCOCC3)cnc2c1 (single isomer, unassigned) [Compound 315a] | 2240 nM | > 30200 nM | > 30200 nM | > 30200 nM | > 30200 nM | 195 nM |  | 86 °C |  | > 20.4 nM |
| CC(Nc1ccc(F)c(F)c1)c1cc(C(=O)NCCCO)cc2ncc(N3CCOCC3)nc12 (centres unmarked) [Compound 280] | 6 nM | 427 nM | 5130 nM | > 30200 nM | 11200 nM | ~275 nM | 158 nM | 164 °C |  |  |
| CC(Nc1ccc(F)c(F)c1)c1cc(C(=O)N(C)CCN(C)C)cc2ncc(N3CCOCC3)nc12 (single isomer, unassigned) [Compound 349a] | 0.2 nM | 36 nM | 813 nM | > 30200 nM | 4270 nM |  |  | 82 °C | 4 nM | 2 nM |
